Consider 15 compounds from ChEMBL document CHEMBL5113380, “Functionalized quinoxalinones as privileged structures with broad-ranging pharmacological activities” (Eur J Med Chem, 2022).

≈ marks a conversion by molar mass, not a printed value.

Data set [1] is described as follows: Displacement of [3H]AMPA from NMDA receptor (unknown origin). It counts as protein-complex assay, Homo sapiens.
For data set [2], the target named is Glutamate [NMDA] receptor. The data set can be described thus: Displacement of [3H]MDL from NMDA receptor (unknown origin). In kind it is protein-complex assay, Homo sapiens.
For data set [3], the target named is Glutamate receptor ionotropic, kainate 2 (Homo sapiens, UniProt Q13002). The data set can be described thus: Binding affinity to GluK2 receptor (unknown origin).
The target in a further data set is Glutamate receptor 2 (Homo sapiens, UniProt P42262). The data set is described as follows: Binding affinity to GluA2 receptor (unknown origin).
For data set [4], the target named is T1, Glutamate receptor ionotropic, kainate 5 (Homo sapiens, UniProt Q16478).
T1 sequence (Q16478 whole entry): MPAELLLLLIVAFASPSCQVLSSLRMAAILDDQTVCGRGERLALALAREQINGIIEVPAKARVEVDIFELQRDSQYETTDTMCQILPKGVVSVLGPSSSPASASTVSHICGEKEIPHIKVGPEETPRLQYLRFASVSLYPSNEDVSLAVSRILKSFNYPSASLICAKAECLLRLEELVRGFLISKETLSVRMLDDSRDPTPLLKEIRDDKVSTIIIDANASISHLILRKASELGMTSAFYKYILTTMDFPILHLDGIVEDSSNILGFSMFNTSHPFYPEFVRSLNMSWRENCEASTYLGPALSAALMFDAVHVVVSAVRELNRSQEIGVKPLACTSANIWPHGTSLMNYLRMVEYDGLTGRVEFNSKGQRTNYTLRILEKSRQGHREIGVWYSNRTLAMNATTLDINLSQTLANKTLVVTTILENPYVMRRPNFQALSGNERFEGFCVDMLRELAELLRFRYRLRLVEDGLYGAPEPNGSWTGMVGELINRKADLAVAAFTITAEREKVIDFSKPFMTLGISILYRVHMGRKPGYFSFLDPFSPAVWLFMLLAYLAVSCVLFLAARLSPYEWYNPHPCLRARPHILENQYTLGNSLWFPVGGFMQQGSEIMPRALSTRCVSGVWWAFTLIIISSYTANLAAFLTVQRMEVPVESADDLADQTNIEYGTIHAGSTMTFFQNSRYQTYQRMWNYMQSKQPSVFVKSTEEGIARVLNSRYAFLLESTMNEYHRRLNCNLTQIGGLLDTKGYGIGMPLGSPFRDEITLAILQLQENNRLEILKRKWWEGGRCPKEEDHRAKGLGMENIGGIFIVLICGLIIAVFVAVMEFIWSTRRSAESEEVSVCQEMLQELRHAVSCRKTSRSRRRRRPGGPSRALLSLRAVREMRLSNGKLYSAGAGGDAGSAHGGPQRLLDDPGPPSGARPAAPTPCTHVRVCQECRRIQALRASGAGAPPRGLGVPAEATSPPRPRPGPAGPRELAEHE
The data set is described as follows: Binding affinity to GluK5 receptor (unknown origin).

Data set [5] in a line: Inhibition of KA-induced cytotoxicity in human hippocampal cell culture. In kind it is toxicity, cell-based. To be noted: Hippocampal neurone.
For data set [6], the target named is T2, Glutamate receptor ionotropic AMPA (Homo sapiens, UniProt P42261+P42262+P42263+P48058). The data set is described as follows: Displacement of [3H]AMPA from AMPA receptor (unknown origin). It counts as protein-complex assay.
A short description of data set [7]: Cytotoxicity against mock-infected human MT4 cells. It counts as toxicity, cell-based.
The target of data set [8] is Glutamate receptor ionotropic, kainate 1 (Homo sapiens, UniProt P39086). The data set can be described thus: Binding affinity to GluK1 receptor (unknown origin).
The target of data set [9] is T2, Glutamate receptor ionotropic AMPA. The data set is described as follows: Binding affinity to AMPA receptor (unknown origin). In kind it is protein-complex assay.
A short description of data set [10]: Inhibition of Escherichia coli topoisomerase 4.
For data set [11], the system named is Escherichia coli. The data set is described as follows: Antibacterial activity against Escherichia coli. In kind it is functional.
A further data set has as its system Staphylococcus aureus. The data set is described as follows: Antibacterial activity against Staphylococcus aureus. In kind it is functional.
Data set [12] is described as follows: Lipophilicity, logD of compound. It counts as physicochemical. Particulars: octanol/water.
Data set [13] can be described thus: Dissociation constant, pKa of the compound. It counts as physicochemical.
The target of data set [14] is Voltage-gated inwardly rectifying potassium channel KCNH2 (Homo sapiens, UniProt Q12809). The data set is described as follows: Inhibition of hERG. In kind it is toxicity.
The subject of another data set is Pseudomonas aeruginosa. The data set can be described thus: Antibacterial activity against Pseudomonas aeruginosa. It counts as functional.
In the next data set the test system is Klebsiella pneumoniae. The data set can be described thus: Antibacterial activity against Klebsiella pneumoniae. In kind it is functional.
The subject of the next data set is Streptococcus pneumoniae. The data set can be described thus: Antibacterial activity against Streptococcus pneumoniae. In kind it is functional.
The subject of data set [15] is Escherichia coli. The data set can be described thus: Antibacterial activity against Escherichia coli W3110. It counts as functional.
Data set [16] concerns the target Glutamate [NMDA] receptor. The data set is described as follows: Displacement of [3H]MK-801 from NMDA receptor (unknown origin). In kind it is protein-complex assay, Homo sapiens.
Data set [17] in a line: Displacement of [3H]glycine from AMPA receptor (unknown origin). In kind it is protein-complex assay, Homo sapiens.
Data set [18] has as its target Glutamate [NMDA] receptor. The data set is described as follows: Antagonist activity at NMDA receptor (unknown origin) assessed as NMDA-induced depolarizations. It counts as protein-complex assay, Homo sapiens.
In data set [19] the target is T2, Glutamate receptor ionotropic AMPA. The data set is described as follows: Antagonist activity at AMPA receptor (unknown origin) assessed as AMPA-induced depolarizations. In kind it is protein-complex assay.
For data set [20] the target is unchanged. The data set can be described thus: Displacement of [3H]kainic acid from AMPA receptor (unknown origin). In kind it is protein-complex assay.
For a further data set, the system named is HeLa. The data set can be described thus: Antiproliferative activity against human HeLa cells. It counts as functional, cell-based.
Another data set concerns MCF7. The data set is described as follows: Antiproliferative activity against human MCF7 cells. In kind it is functional, cell-based.
The test system of the next data set is K562. The data set is described as follows: Antiproliferative activity against human K562 cells. In kind it is functional, cell-based.
Data set [21] is described as follows: Antiproliferative activity against human 3AO cells. In kind it is functional, cell-based.
For a further data set, the system named is BEAS-2B. The data set can be described thus: Antiproliferative activity against human BEAS-2B cells. In kind it is functional, cell-based.
Data set [22] has as its target Vascular endothelial growth factor receptor 2 (Homo sapiens, UniProt P35968). The data set is described as follows: Inhibition of VEGFR2 (unknown origin) at 1 uM relative to control.
A further data set deals with PC-3. The data set is described as follows: Antiproliferative activity against human PC-3 cells. In kind it is functional, cell-based.
The target of data set [23] is T2, Glutamate receptor ionotropic AMPA. The data set can be described thus: Displacement of [3H]CNQX from AMPA receptor (unknown origin). It counts as protein-complex assay.

Glutamate receptor ionotropic, kainate 2, sequence (Q13002 whole entry): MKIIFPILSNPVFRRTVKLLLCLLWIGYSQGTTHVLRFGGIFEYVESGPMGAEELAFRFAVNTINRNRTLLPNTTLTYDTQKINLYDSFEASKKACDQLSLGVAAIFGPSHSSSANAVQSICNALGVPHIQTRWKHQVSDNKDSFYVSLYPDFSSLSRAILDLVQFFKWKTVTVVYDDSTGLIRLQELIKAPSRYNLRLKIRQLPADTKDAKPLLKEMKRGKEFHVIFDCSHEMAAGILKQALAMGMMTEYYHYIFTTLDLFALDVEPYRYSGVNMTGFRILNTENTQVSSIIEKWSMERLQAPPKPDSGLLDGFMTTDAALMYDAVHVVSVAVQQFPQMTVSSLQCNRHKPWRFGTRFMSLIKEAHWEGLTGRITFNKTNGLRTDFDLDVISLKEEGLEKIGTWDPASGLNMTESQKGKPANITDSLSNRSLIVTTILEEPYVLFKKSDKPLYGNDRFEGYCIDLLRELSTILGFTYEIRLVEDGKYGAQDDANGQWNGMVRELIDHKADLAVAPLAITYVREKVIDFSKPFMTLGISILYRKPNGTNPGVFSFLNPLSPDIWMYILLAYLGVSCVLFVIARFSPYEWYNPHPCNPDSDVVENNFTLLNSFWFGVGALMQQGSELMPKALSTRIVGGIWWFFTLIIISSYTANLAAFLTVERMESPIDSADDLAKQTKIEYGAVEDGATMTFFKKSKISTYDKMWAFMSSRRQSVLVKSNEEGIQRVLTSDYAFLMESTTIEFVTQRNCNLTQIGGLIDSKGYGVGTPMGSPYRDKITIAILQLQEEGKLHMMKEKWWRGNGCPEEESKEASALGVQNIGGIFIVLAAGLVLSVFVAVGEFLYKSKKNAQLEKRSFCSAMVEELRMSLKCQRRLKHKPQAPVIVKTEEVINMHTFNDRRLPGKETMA
Glutamate receptor 2, sequence (P42262 whole entry): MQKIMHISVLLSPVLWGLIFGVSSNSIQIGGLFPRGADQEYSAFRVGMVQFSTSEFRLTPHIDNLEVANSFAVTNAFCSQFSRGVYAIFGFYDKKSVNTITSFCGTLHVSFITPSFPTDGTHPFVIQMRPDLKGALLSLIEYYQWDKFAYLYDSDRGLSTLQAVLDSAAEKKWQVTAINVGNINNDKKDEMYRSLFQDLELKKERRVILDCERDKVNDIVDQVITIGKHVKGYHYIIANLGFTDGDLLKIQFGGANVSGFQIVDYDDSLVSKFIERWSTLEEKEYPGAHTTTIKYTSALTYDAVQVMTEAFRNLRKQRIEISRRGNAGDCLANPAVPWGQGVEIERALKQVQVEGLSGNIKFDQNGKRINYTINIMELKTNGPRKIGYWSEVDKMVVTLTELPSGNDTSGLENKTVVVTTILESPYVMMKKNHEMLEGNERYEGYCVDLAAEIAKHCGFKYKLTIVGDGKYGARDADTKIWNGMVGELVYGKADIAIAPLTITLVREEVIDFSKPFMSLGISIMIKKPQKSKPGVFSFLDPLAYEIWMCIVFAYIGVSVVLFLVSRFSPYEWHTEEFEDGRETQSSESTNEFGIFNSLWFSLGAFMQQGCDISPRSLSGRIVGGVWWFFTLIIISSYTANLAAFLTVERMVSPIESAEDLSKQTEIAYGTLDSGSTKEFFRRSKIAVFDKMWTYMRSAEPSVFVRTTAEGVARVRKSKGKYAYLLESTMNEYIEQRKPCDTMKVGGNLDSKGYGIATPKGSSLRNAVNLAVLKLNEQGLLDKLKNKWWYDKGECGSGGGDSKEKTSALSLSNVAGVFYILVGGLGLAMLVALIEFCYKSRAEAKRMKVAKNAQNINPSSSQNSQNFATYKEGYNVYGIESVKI
Voltage-gated inwardly rectifying potassium channel KCNH2, sequence (Q12809 whole entry): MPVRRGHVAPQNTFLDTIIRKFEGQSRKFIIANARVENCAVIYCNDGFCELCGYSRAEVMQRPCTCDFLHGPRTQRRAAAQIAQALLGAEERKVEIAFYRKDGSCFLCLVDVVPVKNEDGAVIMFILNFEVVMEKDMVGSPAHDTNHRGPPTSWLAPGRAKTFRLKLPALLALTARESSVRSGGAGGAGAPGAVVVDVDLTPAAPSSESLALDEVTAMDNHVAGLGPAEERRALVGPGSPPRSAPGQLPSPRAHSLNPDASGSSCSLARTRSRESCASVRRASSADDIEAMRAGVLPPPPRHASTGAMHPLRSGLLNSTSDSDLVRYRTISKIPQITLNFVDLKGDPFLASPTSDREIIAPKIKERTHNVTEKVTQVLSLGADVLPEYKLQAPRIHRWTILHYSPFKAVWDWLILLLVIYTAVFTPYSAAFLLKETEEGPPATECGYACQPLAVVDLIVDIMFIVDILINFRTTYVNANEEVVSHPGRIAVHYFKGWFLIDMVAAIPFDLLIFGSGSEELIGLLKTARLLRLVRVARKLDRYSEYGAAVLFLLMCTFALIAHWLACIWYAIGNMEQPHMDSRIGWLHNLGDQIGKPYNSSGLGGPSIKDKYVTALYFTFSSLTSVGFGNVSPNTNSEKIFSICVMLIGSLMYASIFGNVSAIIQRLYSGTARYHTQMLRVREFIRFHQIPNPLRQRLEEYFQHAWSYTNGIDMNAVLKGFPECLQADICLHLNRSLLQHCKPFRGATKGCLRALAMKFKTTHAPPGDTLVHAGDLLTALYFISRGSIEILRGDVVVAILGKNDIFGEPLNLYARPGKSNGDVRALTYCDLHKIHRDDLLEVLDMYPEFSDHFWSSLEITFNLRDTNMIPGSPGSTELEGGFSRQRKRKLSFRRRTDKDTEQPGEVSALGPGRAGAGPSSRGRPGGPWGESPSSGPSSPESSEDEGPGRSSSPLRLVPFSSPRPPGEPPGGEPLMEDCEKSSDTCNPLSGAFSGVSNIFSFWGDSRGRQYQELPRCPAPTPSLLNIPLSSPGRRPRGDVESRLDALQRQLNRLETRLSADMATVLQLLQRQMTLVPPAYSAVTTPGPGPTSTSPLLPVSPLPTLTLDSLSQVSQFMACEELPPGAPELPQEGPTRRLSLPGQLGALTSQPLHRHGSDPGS
Glutamate receptor ionotropic, kainate 1, sequence (P39086 whole entry): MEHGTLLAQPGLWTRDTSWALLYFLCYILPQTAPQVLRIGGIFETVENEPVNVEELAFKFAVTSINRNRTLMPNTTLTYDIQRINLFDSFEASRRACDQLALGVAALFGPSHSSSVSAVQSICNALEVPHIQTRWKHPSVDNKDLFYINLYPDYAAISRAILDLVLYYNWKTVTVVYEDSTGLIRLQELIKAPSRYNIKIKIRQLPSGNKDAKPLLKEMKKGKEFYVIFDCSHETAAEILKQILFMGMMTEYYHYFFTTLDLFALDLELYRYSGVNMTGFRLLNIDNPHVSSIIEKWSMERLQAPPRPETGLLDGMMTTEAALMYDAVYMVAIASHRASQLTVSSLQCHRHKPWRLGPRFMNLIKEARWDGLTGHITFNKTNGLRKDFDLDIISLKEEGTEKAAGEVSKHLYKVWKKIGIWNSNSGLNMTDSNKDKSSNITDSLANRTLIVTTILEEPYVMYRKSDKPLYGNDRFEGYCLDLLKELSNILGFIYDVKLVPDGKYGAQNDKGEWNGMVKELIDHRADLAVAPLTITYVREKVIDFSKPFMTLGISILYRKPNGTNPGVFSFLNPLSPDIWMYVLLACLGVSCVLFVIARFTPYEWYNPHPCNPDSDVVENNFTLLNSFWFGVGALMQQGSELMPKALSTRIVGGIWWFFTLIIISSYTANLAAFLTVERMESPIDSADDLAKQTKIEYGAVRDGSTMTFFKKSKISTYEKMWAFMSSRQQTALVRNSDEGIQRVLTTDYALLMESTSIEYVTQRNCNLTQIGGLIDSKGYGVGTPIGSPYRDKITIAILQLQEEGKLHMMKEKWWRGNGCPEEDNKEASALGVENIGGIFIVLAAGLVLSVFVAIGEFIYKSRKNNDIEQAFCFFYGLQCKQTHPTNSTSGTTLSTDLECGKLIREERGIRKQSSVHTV

Turning to `O=C(NCc1cc(Br)cc2nc(O)c(O)nc12)c1cccs1`, the results for the IC50 in data set [1] and in [2] were 1.6 µM and 0.01 µM, respectively.

Regarding `O=C(Nn1c(=O)c(=O)[nH]c2cc(C#CCO)ccc21)c1ccccc1`, the Ki was 9.78 µM in data set [3], 37.4 µM at Glutamate receptor 2 and 100 µM in data set [4].

Consider `O=c1[nH]c2cc([N+](=O)[O-])c(-n3ccnc3)nc2n2ccnc12`, for which half-maximal inhibition in [5] (IC50) required 0.3 µM. This compound also returned a Ki in [6] of 0.057 µM.

In [7], `O=c1[nH]c2ccc(Cl)c(Cl)c2nc1CBr` displayed a 50% cytotoxic concentration (CC50) of 24 µM. This lies in the double-digit micromolar range.

Regarding `O=C(Nn1c(=O)c(=O)[nH]c2cc(C(F)(F)F)c(F)cc21)c1ccccc1O`, the Ki in [8] is 1.12 µM; in [9], 0.96 µM; in data set [3], 0.908 µM; on Glutamate receptor 2, 4.12 µM; in data set [4] it was 26.4 µM.

With `COc1cnc2ccc(=O)n(C[C@@H](N)[C@H]3CC[C@H](NCc4ccc5c(n4)NC(=O)CO5)CC3)c2c1`, the figures for the IC50 in data set [10] and in [14] were 0.002 µM and more than 333 µM, respectively. The MIC against Escherichia coli [11] stood at 0.5 mg/L (≈ 1.04 µM); with Staphylococcus aureus it was 8 mg/L (≈ 16.7 µM); in the data set on Pseudomonas aeruginosa, 1 mg/L (≈ 2.09 µM); with Klebsiella pneumoniae, 8 mg/L (≈ 16.7 µM). Further, the figures for the MIC90 against Escherichia coli [11] and against Pseudomonas aeruginosa were 0.5 mg/L (≈ 1.04 µM) and 4 mg/L (≈ 8.36 µM), respectively. The compound further yielded a logD in data set [12] of -0.86. The pKa in data set [13] was 7.66.

In the case of `COc1ccc2ncc(=O)n(CCN3CCC(NCc4ccc5c(n4)NC(=O)CO5)CC3)c2c1`, the IC50 in [10] came to 0.0022 µM. Further, the MIC against Streptococcus pneumoniae was found to be 0.08 mg/L (≈ 0.172 µM); against Staphylococcus aureus, 0.03 mg/L (≈ 0.0646 µM); with Escherichia coli [15] it was 0.13 mg/L (≈ 0.28 µM); in the data set on Pseudomonas aeruginosa, 1 mg/L (≈ 2.15 µM). For the same compound, the logD in data set [12] was 0.6. Moreover, the pKa in data set [13] came to 5.56.

Consider `O=C(O)c1nc2c(O)nc3cc(Cl)c(-n4cccc4)cc3n2n1`, for which the IC50 was 11.7 µM in [16], 52 µM in [18], 3 µM in data set [19] and 36 µM in [20]. For the same compound, the Ki in [17] and in [6] was 0.86 µM in each case.

Regarding `O=C(O)c1nc2c(=O)[nH]c3cc(Cl)c(-n4cnnc4)cc3n2n1` [TQX-173], the inhibition constant (Ki) in data set [17] came to 33.5 µM; in [6] it was 0.14 µM. The results for the IC50 in data set [18], in data set [19] and in data set [20] were 46 µM, 2.3 µM and 11.6 µM, respectively.

As for `O=C(Nn1c(=O)c(=O)[nH]c2cc(C#Cc3ccccc3)ccc21)c1ccccc1`, the Ki in [8] was more than 100 µM; in data set [3], 100 µM; at Glutamate receptor 2, 23.6 µM; in data set [4] it was more than 100 µM.

For `O=C(Cn1c(=O)c(/C=C/c2ccncc2)nc2ccccc21)Nc1ccc(F)cc1`, the IC50 in the data set with HeLa is more than 100 µM; with MCF7, 49 µM; with K562 it was more than 100 µM; in data set [21], more than 100 µM; in the data set with BEAS-2B, more than 100 µM; with PC-3, 59.9 µM. In [22], this compound had an inhibition of 6%.

In data set [5], `O=c1[nH]c2cc(C(F)(F)F)c(-n3ccnc3)nc2n2ccnc12` returned an IC50 of 0.32 µM. The same compound gave a Ki in data set [6] of 0.066 µM.

`O=C(NCc1cc(Br)cc2[nH]c(=O)c(=O)[nH]c12)c1ccsc1`: the IC50 in [1] worked out at 2 µM; in data set [2], 0.01 µM.

On to `Cc1cc2[nH]c(=O)c(=O)[nH]c2cc1C=O`, for which the IC50 in data set [23] stood at 4 µM; in [20], 54 µM; in [6], 11 µM.

For `N[C@H](Cn1c(=O)cnc2ccc(F)cc21)[C@H]1CC[C@H](NCc2ncc3c(n2)NC(=O)CO3)CC1`, the results for the IC50 in data set [10] and in [14] were 0.003 µM and more than 333 µM, respectively. The figures for the minimum inhibitory concentration (MIC) in the data set with Escherichia coli [11], in the data set on Staphylococcus aureus and with Pseudomonas aeruginosa were less than 0.06 mg/L, 1 mg/L (≈ 2.14 µM) and 0.5 mg/L (≈ 1.07 µM), respectively. The MIC90 against Escherichia coli [11] was found to be 1 mg/L (≈ 2.14 µM); in the data set on Pseudomonas aeruginosa it was 4 mg/L (≈ 8.56 µM); in the data set with Klebsiella pneumoniae, 16 mg/L (≈ 34.2 µM). Besides, in data set [12], the logD was -0.32. This compound also yielded a pKa in data set [13] of 7.28.
